A word on the IC50: it is the concentration that inhibits the measured activity by half.

The target of the assay is T1, Folate receptor (Homo sapiens, UniProt P15328).
T1 construct: host or cells: KB cells (human cervical carcinoma cell line, HeLa subclone)
Briefly: Folate receptor binding affinity (displacement of ^3H-folic acid on KB tumor cells). To be noted: ^3H-folic acid 0.84 nM, 4° C., 30 min, read-out: FR-binding affinity IC50.

T1 sequence (P15328 25-234): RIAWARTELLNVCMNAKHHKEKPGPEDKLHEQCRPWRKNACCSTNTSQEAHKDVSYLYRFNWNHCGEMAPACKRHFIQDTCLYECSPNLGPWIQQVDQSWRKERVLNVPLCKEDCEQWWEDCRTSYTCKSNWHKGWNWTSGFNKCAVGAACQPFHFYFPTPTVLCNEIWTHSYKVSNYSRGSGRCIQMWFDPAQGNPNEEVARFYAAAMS
Description: Cell Culture: KB cells (human cervical carcinoma cell line, HeLa subclone; ACC-136) were purchased from the German Collection of Microorganisms and Cell Cultures (DSMZ, Braunschweig, Germany). The cells were cultured as monolayers at 37° C. in a humidified atmosphere containing 5% CO2. […] FFRPMI medium was supplemented with 10% heat-inactivated fetal calf serum (FCS, as the only source of folate), L-glutamine and antibiotics (penicillin/streptomycin/fungizone). Routine culture treatment was performed twice a week with EDTA (2.5 mmol/l) in PBS.
After incubation, Eppendorf tubes containing the cell suspensions were centrifuged at 4° C. for 5 min and the supernatant was removed. By addition of 0.5 ml of NaOH 1 M the cell pellets were lysed and transferred into scintillation tubes containing 5 ml of scintillation cocktail (Ultima Gold; Perkin Elmer). Radioactivity was measured using a liquid scintillation analyzer (Tri-Carb 1900 TR, Packard) and an inhibitory concentration of 50% was determined from displacement curves using GraphPad Prism (version 5.01) software.

On to `Nc1nc2ncc(CNc3ccc(C(=O)N[C@@H](CCC(=O)O)C(=O)O)c(F)n3)nc2c(=O)[nH]1` [3′-aza-2′-fluorofolic acid], for which the half-inhibitory concentration (IC50) was determined as 810 ± 180 pM.

The record behind these values is patent publication US10357576B2, “18F-labelled folate/antifolate analogues” (MERCK & CIE, priority 2012, dated 2019).
